Counter-ions that a name gives are not always drawn.
System: MTT (mouse pheochromocytoma)
Test: IC50 of cell viability (ATP content)
Settings: (24 or 48 h)
Procedure, shortened: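 Cells of the MTT mouse pheochromocytoma line, 5 µl per well at 200,000 cells/ml, were grown overnight at 37°C, 5% CO2 in white 1536-well plates with DMEM, 5% FBS and 1% horse serum. Pintool transfer then delivered 23 nl of library compound in DMSO, giving 8 final concentrations from 0.5 nM to 46 µM, for an exposure of 24 or 48 hrs. Luminescence from CellTiter-Glo was read after 15 minutes and referenced to positive-control wells (100%) and DMSO wells (0%). IC50 was calculated with a four-parameter logistic fit.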

Row | Structure (SMILES) | IC50 of cell viability [µM]
1 | CCCCCCCCCc1ccc(O)cc1 [4-Nonylphenol, branched] | > 46
2 | C(=C\c1ccncc1)/c1ccccc1 [4-STYRYLPYRIDINE] | > 46
3 | CC(C)(C)c1ccc(O)cc1 [4-T-BUTYLPHENOL FORMALDEHYDE RESIN] | > 46
4 | Cc1ccc2c(Cl)cc(Cl)c(O)c2n1 [5,7-Dichloro-8-hydroxy-2-methylquinoline] | > 46
5 | Cc1ccc(N)cc1O [5-Amino-o-cresol] | > 46
6 | N[C@@H](Cc1c[nH]c2ccc(O)cc12)C(=O)O [5-HYDROXY-L-TRYPTOPHAN] | > 46
7 | O=C1[C@@H]2C[C@@H]3C[C@H]1C[C@@](O)(C3)C2 [5-Hydroxy-2-adamantanone] | > 46
8 | CN1c2c(O)nc(N)nc2NCC1CNc1ccc(C(=O)NC(CCC(=O)[O-])C(=O)[O-])cc1 (configuration not stated) [5-METHYLTETRAHYDROFOLATE SODIUM SALT] | > 46
9 | COc1ccc2[nH]cc(CCN(C(C)C)C(C)C)c2c1 [5-Methoxy-N,N-diisopropyltryptamine] | > 46
10 | NC(=O)N/N=C/c1ccc([N+](=O)[O-])o1 [5-Nitro-2-furaldehyde semicarbazone] | > 46
11 | CC(=O)[C@H]1CC[C@H]2[C@@H]3CC[C@H]4C[C@H](O)CC[C@]4(C)[C@H]3CC[C@]12C [5-alpha-PREGNAN-3-alpha-OL-20-ONE] | > 46
12 | C[C@]12CCC(=O)C[C@@H]1CC[C@@H]1[C@@H]2CC[C@]2(C)C=CC[C@@H]12 [5A-ANDROSTA-16-ENE-3-ONE] | > 46
13 | C[C@]12CCC(=O)C[C@@H]1CC[C@@H]1[C@@H]2CC[C@]2(C)[C@@H](O)CC[C@@H]12 [5alpha-Androstan-17beta-ol-3-one] | > 46
14 | CC(=O)[C@H]1CC[C@H]2[C@@H]3CC[C@H]4C[C@H](O)CC[C@]4(C)[C@H]3C(=O)C[C@]12C [5alpha-Pregnan-3alpha-ol-11,20-dione] | > 46
15 | COc1cc2nc(O)nc(O)c2cc1OC [6,7-DIMETHOXYQUINAZOLINE-2,4(1H,3H)-DIONE] | > 46
16 | CC1(C)S[C@@H]2[C@H](N)C(=O)N2[C@@H]1C(=O)O [6-AMINOPENICILLANIC ACID] | > 46
17 | CCCc1cc(O)nc(S)n1 [6-Propyl-2-thiouracil] | > 46
18 | C[C@H]1C[C@H]2[C@@H]3CC[C@](O)(C(=O)COC(=O)CCC(O)=O)[C@@]3(C)C[C@H](O)[C@@H]2[C@@]\4(C)/C=C\C(=O)\C=C14 [6a-Methylprednisolone 21-hemisuccinate sodium salt] | > 46
19 | Cn1c(=O)c2c(ncn2CCO)n(C)c1=O [7-(beta-HYDROXYETHYL)THEOPHYLLINE] | > 46
20 | Oc1cccc2cccnc12 [8-Hydroxyquinoline] | > 46
21 | O=C(O)c1ccccc1O.Oc1cccc2cccnc12 [8-quinolinol and salicylic acid] | > 46
22 | O=[N+]([O-])c1c2ccccc2cc2ccccc12 [9-Nitroanthracene] | > 46
23 | CCCCCC(=O)O[C@@]1(CC[C@H]2[C@@H]3CCC/4=C/C(=O)CC[C@]4(C)[C@H]3CC[C@]12C)C(C)=O [17a-Hydroxyprogesterone hexanoate] | > 46

Row | Structure (SMILES) | IC50 of cell viability [µM]
24 | CC1(C(=O)O)CCC2(C)CCC3(C)C(=CC(=O)C4C5(C)CCC(O)C(C)(C)C5CCC43C)C2C1 (stereo not drawn) [18ALPHA-GLYCYRRHETINIC ACID] | > 46
25 | C[C@]12CCC3C(CCC4=CC(=O)CC[C@@H]43)C1CCC2O (some centres not stated) [19-Norandrostenolone] | > 46
26 | C[C@H](CCCC(C)(C)O)[C@H]1CC[C@H]2[C@@H]3CC=C4C[C@@H](O)CC[C@]4(C)[C@H]3CC[C@]12C [25-Hydroxycholesterol] | > 46
27 | CN1CCN([C@@H](c2ccccc2)c2ccc(Cl)cc2)CC1 [(1-[(4-Chlorophenyl)phenyl-methyl]-4-methylpiperazine)] | > 46
28 | COc1ccc2c(c1OC)C(=O)O[C@H]2[C@@H]1c2cc3c(cc2CCN1C)OCO3 [(1S,9R)-beta-HYDRASTINE] | > 46
29 | CCc1cc(OC)c(C[C@H](C)N)cc1OC [(+)-2,5-Dimethoxy-4-ethylamphetamine] | > 46
30 | COc1cc(C[C@H](C)N)c(OC)cc1C [(+)-2,5-Dimethoxy-4-methylamphetamine] | > 46
31 | COc1ccc(OC)c(C[C@H](C)N)c1 [(+)-2,5-Dimethoxyamphetamine] | > 46
32 | COc1cc(C[C@H](C)N)c(OC)cc1Br [(+)-4-Bromo-2,5-dimethoxyamphetamine] | > 46
33 | CCN[C@@H](C)Cc1cccc(C(F)(F)F)c1 [(+)-Fenfluramine] | > 46
34 | CCN(CC)C(=O)[C@H]\1CN(C)[C@@H]\2CC3=C[NH]C4=C3C(=CC=C4)C2=C1 [(+)-Lysergic] | > 46
35 | C[C@]12N[C@H](Cc3ccccc31)c1ccccc12 [(+)-MK 801] | > 46
36 | C[C@H]1[C@@H]2Cc3ccc(O)cc3[C@]1(C)CCN2C [(+)-Metazocine] | > 46
37 | CCN[C@@H](C)Cc1ccccc1 [(+)-N-Ethylamphetamine] | > 46
38 | CN1CCC[C@@H]1c1cccnc1 [(+)-NICOTINE] | > 46
39 | CC(C)=CCN1CC[C@@]2(C)c3cc(O)ccc3C[C@H]1[C@@H]2C [(+)-Pentazocine] | > 46
40 | C[C@H]1[C@@H]2Cc3ccc(O)cc3[C@]1(C)CCN2CCc1ccccc1 [(+)-Phenazocine] | > 46
41 | COc1cc2c3cc1Oc1cc(ccc1O)C[C@@H]1c4c(cc(OC)c(O)c4Oc4ccc(cc4)C[C@@H]3N(C)CC2)CC[N+]1(C)C [(+)-TUBOCURARINE] | > 46
42 | C[C@@H](N)[C@@H](O)c1ccc(O)c(O)c1 [(-)3,4-DIHYDROXYNOREPHEDRINE] | > 46
43 | CC(C)(C)NC[C@H](O)COc1cccc2c1CCCC2=O [(-) -Levobunolol hydrochloride] | > 46
44 | CN1C(=O)CC[C@H]1c1cccnc1 [(-)-COTININE] | > 46
45 | CCCN1CCC[C@@H]2Cc3n[nH]cc3C[C@H]21 [(-)-QUINPIROLE] | > 46
46 | COc1cc(CC(C)N)cc(OC)c1OC (configuration not stated) [(?)-3,4,5-Trimethoxyamphetamine] | > 46

Row | Structure (SMILES) | IC50 of cell viability [µM]
47 | CNC(C)Cc1ccc2c(c1)OCO2 (configuration not stated) [(?)-3,4-Methylenedioxymethamphetamine] | > 46
48 | COc1cc(CC(C)N)cc2c1OCO2 (configuration not stated) [(?)-3-Methoxy-4,5-methylenedioxyamphetamine] | > 46
49 | CC(CC(C#N)(c1ccccc1)c1ccccc1)N(C)C (configuration not stated) [(?)-4-Dimethylamino-2,2-diphenylvaleronitrile] | > 46
50 | CCC1(CCC(C)C)C(=O)NC(=O)NC1=O [(?)-Amobarbital] | > 46
51 | Clc1ccc([C@H]2CC3CCC2N3)cn1 (some centres not stated) [(?)-Epibatidine] | > 46
52 | CNC(C)Cc1ccccc1 (configuration not stated) [(?)-Methamphetamine] | > 46
53 | CCNC(C)Cc1ccc2c(c1)OCO2 (configuration not stated) [(?)-N-Ethyl-3,4-methylenedioxyamphetamine] | > 46
54 | CC(Cc1ccc2c(c1)OCO2)NO (configuration not stated) [(?)-N-Hydroxy-3,4-methylenedioxyamphetamine] | > 46
55 | CN1CCN(C2Cc3ccccc3Sc3ccc(Cl)cc32)CC1.O=C(O)/C=C\C(=O)O (configuration not stated) [(?)-Octoclothepin maleate] | > 46
56 | OC1\N=C(C2=CC=CC=C2)/C3=CC(=CC=C3NC1=O)Cl (configuration not stated) [(?)-Oxazepam] | > 46
57 | CC1\N=C(N)/OC1C2=CC=CC=C2 (stereo not drawn) [(?)-cis-(4RS,5SR)-2-Amino-4-methyl-5-phenyl-2-oxazoline] | > 46
58 | NC/C=C/C(=O)O [(E)-4-amino-2-butenoic acid] | > 46
59 | O=c1[nH]c(=O)n([C@H]2C[C@H](O)[C@@H](CO)O2)cc1/C=C/Br [(E)-5-(2-Bromovinyl)-2'-deoxyuridine] | > 46
60 | CCCCCC[C@@H](CCC)C(=O)O [(R)-2-Propyloctanoic acid (Arundic Acid)] | > 46
61 | CC(N)C(=O)c1ccccc1 [(R)-(+)-Cathinone] | > 46
62 | CCCC1([C@H](O)C/C=C/[C@H]2[C@H](O)CC(=O)[C@@H]2CCCCCCC(=O)OC)CCC1 [(R)-Butaprost] | > 46
63 | C[C@H](C1=NC=CC=C1)C/2=C(CCN(C)C)/CC3=CC=CC=C23 [(S)-(+)-Dimethindene maleate] | > 46
64 | C[C@H](N)C(=O)c1ccccc1 [(S)-(-)-Cathinone] | > 46
65 | CSCCC(NC(=O)[C@H](Cc1c[nH]c2ccccc12)NC(=O)CNC(=O)[C@H](CCSC)NC(=O)[C@H](Cc1ccc(O[S+](=O)([O-])O)cc1)NC(=O)[C@@H](N)CC(=O)O)C(=O)N[C@@H](CC(=O)O)C(=O)N[C@@H](Cc1ccccc1)C(N)=O (some centres not stated) [(Tyr[SO3H]27)Cholecystokinin fragment 26-33 Amide] | > 46
66 | C[C@@H]1CCC[C@H](C)N1 [(cis-) Nanophine] | > 46
67 | COc1ccc2c(c1OC)CN1CCc3cc4c(cc3[C@H]1C2)OCO4 [(d,l)-Tetrahydroberberine] | > 46
